Measured values published in article PMC9744561 (Genes, Brain, and Behavior, 2022).

Molecular target: T1, Octα2R (α2-adrenergic-like octopamine receptor) (Drosophila melanogaster, UniProt Q9VE32)
T1 sequence (Q9VE32 1-699): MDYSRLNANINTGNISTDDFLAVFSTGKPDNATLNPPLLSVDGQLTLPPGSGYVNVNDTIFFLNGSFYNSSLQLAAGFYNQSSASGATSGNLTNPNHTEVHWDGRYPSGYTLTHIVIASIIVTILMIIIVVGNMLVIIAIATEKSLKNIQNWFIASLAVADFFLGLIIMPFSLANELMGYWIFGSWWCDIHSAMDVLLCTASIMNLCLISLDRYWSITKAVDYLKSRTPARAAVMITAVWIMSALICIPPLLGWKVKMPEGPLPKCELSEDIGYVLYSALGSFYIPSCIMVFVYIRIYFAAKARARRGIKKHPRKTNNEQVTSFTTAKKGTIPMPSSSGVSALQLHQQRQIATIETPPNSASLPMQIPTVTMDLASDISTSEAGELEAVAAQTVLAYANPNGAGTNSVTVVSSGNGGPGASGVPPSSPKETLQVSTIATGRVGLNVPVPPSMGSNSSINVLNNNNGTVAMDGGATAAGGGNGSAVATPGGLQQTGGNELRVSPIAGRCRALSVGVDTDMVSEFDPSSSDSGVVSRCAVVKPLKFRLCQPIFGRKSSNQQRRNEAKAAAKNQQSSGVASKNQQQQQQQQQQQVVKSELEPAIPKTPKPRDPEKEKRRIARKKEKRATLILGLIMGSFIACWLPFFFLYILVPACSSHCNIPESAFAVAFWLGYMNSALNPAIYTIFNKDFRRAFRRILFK
Assay: aequorin Ca2+ luminescence, inhibition of octopamine response, HEK-293 cells
Assay type: cell-based

Q: Which IC50 does the source give for `Cc1ccc(N(CC2=NCCN2)c2cccc(O)c2)cc1` [PA, phentolamine] here?
A: 93 nM

Q: Which IC50 does the source give for `NC1=NCC2c3ccccc3Cc3ccccc3N12` (stereo not drawn) [EP, epinastine] here?
A: 100 nM

Q: How did the IC50 turn out when `COC(=O)[C@@H]1[C@H]2C[C@H]3c4[nH]c5ccccc5c4CCN3C[C@@H]2CC[C@@H]1O` [YO, yohimbine] was run?
A: 18000 nM
